According to article PMC3426654 (Biochemistry, 2012):

Biological target: TcUGM (UDP-galactopyranose mutase from Trypanosoma cruzi) (Trypanosoma cruzi, UniProt Q4E1W2)
Test: X-ray crystal structure, […] Å
Format: binding
Conditions: UDP complex, pH 7.5

Structure (SMILES)	X-ray crystal structure, 2.25 Å (crystals reduced by soaking in 60 mM dithionite)	X-ray crystal structure, 2.25 Å (oxidized enzyme)
Cc1cc2c(cc1C)N(C[C@H](O)[C@H](O)[C@H](O)COP(=O)(O)OP(=O)(O)OC[C@H]1O[C@@H](n3cnc4c(N)ncnc43)[C@H](O)[C@@H]1O)c1[nH]c(=O)[nH]c(=O)c1N2 [FADH^−]	In the reduced enzyme, the FAD exhibits a butterfly-like conformation	
Cc1cc2nc3c(=O)[nH]c(=O)nc-3n(C[C@H](O)[C@H](O)[C@H](O)COP(=O)(O)OP(=O)(O)OC[C@H]3O[C@@H](n4cnc5c(N)ncnc54)[C@H](O)[C@@H]3O)c2cc1C [FAD]		In the oxidized state, the electron density maps are consistent with a planar isoalloxazine
